In publication PMC4076079, “Selective inhibitors of a PAF biosynthetic enzyme lysophosphatidylcholine acyltransferase 2” (Journal of Lipid Research, 2014):
Several values for one entry are separate records, joined by “and”; a condition that tells them apart may be missing. Identical values can stand only once.

How the values were obtained:
Assay type in all cases: biochemical
hLPCAT2 [1] = target: T1, hLPCAT2 (Homo sapiens, UniProt Q7L5N7); assay: lyso-PAFAT (acetyltransferase) activity assay, PAF product by LC-MS/MS; conditions: 0, 0.2, 0.6, 2, 6 and 20 μM of each compound in triplicate; LC-MS/MS; read-out: IC50, product PAF, enzyme hLPCAT2
T1 construct: expressed in transfected cells; host or cells: CHO-S-PAFR cells (microsomal fraction), with or without mcPAF stimulation
T1 sequence (Q7L5N7 1-544): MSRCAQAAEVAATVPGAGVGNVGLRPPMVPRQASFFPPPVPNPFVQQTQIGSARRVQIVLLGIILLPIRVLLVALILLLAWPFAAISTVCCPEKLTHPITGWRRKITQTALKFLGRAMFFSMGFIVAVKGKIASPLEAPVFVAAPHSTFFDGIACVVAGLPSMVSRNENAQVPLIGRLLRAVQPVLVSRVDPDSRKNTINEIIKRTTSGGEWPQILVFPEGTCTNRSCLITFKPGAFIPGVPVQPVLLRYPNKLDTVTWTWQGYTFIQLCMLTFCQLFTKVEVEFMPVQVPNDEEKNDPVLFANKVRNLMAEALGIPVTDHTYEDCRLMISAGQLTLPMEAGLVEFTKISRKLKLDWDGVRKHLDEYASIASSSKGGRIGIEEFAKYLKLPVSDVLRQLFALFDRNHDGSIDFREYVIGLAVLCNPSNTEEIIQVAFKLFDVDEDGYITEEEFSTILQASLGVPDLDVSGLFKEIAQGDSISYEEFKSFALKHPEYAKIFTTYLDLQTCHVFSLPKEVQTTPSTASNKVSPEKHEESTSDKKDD
Protocol: (§1) Microsomal protein fractions (0.5 μg) supplemented with the indicated compound concentrations were added to the reaction mixture containing 100 mM Tris-HCl (pH 7.4), 1 μM CaCl2, 0.015% Tween-20, and two substrates. For acetyltransferase activity, the substrates were 1 mM acetyl-CoA and 5 μM d4-lyso-PAF; for the acyltransferase activity of LPCAT1 or LPCAT2, the substrates were, respectively, palmitoyl-CoA and d31-16:0 LPC or arachidonoyl-CoA and d4-lyso-PAF (all 5 μM). Each lysophospholipid contained fatty acid at the sn-1 position. After incubation at 37°C for 5 min, the reactions were stopped by adding 300 μl methanol containing 17:0 LPC or 14:0/14:0 PC as an internal standard. Deuterium-labeled products were analyzed by LC-MS/MS (Waters, Milford, MA and Thermo Scientific, Waltham, MA). […]
(§2) Steps 2 to 5 screening: 96-well plate assay
(§3) Acetyltransferase and acyltransferase assays were developed in 96-well plates. The microsomal hLPCAT2, obtained from mcPAF-stimulated CHO-S-PAFR cells was used in steps 1, 2, and 5. The microsomal hLPCAT1 obtained from unstimulated CHO-S cells was used in steps 3 to 5. Each well of the 96-well plates contained 30 µl of 15 µg/ml protein, 600 nl of 2 mM compound, 30 µl buffer C, and two substrates (Fig. 1B and C).
(§4) Substrate concentrations were as follows: acetyl-CoA, 250 or 1000 µM acetyl-CoA; […]
(§5) arachidonoyl-CoA, 5 µM; palmitoyl-CoA, 5 µM; d4-lyso-PAF, 5 µM; and d31-LPC, 5 µM.
For step 5, compound concentrations were 0, 0.167, 0.67, 2, 6.7, and 20 µM. The deuterium-labeled products were measured by LC-MS/MS. Percentage inhibition (steps 2 to 4) or IC50 (step 5) was used as the hit criterion.
Step 6 screening: BSA assay
The acetyltransferase assay was performed with 20 µM of each compound and microsomal hLPCAT2 from step 1. The assay mixture contained 0.4% BSA and two substrates for lyso-PAFAT activity: 1 mM acetyl-CoA and 5 µM d4-lyso-PAF. Percentage inhibition values were determined.
(§6) Step 7 screening: species-specific differences
(§7) To evaluate the effects on the activity of mouse or human LPCAT1 and LPCAT2, each microsomal fraction was obtained using CHO-S-PAFR cells with or without mcPAF (200 nM) stimulation for 5 min. Acetyltransferase and acyltransferase assays were performed with 20 µM of each compound. Percentage inhibition was calculated in each

hLPCAT1 [2] = target: T2, hLPCAT1 (Homo sapiens, UniProt Q8NF37); assay: as above; conditions: 0, 0.2, 0.6, 2, 6 and 20 μM of each compound in triplicate; LC-MS/MS; read-out: IC50, product PAF, enzyme hLPCAT1
T2 construct: expressed in transfected cells
T2 sequence (Q8NF37 1-534): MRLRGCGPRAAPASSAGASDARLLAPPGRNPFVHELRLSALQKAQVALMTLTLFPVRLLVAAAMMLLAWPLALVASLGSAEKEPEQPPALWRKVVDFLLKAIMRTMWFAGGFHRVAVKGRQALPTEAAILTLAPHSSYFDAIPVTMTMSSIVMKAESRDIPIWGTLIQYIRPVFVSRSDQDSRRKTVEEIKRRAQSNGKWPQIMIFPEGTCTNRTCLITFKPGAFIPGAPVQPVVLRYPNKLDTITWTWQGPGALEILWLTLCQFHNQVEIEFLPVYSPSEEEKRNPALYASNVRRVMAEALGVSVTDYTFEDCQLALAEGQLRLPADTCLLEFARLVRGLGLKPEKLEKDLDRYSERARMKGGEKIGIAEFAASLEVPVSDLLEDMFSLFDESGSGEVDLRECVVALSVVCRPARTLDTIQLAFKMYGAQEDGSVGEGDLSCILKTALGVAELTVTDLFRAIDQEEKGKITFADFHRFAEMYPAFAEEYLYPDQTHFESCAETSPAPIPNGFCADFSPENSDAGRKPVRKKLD
Protocol: as §1, §2, §3, §4, §5
(§8) For step 5, compound concentrations were 0, 0.167, 0.67, 2, 6.7, and 20 µM. The deuterium-labeled products were measured by LC-MS/MS. Percentage inhibition (steps 2 to 4) or IC50 (step 5) was used as the hit criterion. […]
as §6, §7

hLPCAT2 [3] = target: T1, hLPCAT2; assay: acyltransferase activity assay, 16:0/20:4 alkyl-PC product by LC-MS/MS; conditions: 0, 0.2, 0.6, 2, 6 and 20 μM of each compound in triplicate; LC-MS/MS; read-out: IC50, product Alkyl-PC (16:0/20:4 alkyl-PC), enzyme hLPCAT2
Protocol: as §1, §2, §3, §4, §5, §8, §6, §7

hLPCAT1 [4] = target: T2, hLPCAT1; assay: acyltransferase activity assay, DPPC product by LC-MS/MS; conditions: 0, 0.2, 0.6, 2, 6 and 20 μM of each compound in triplicate; LC-MS/MS; read-out: IC50, product DPPC, enzyme hLPCAT1
Protocol: as §1, §2, §3, §4, §5, §8, §6, §7

Compound	IC50 (hLPCAT2 [1])	IC50 (hLPCAT1 [2]) [µM]	IC50 (hLPCAT2 [3]) [µM]	IC50 (hLPCAT1 [4]) [µM]
CCN1C(=O)C=CC1=O [N-ethylmaleimide (NEM), N-ethylmaleimide, reference compound]	106 µM	1720	69.6	1850
COc1ccc(Cl)cc1N1C(=O)C(Cl)=C(Cl)C1=O [TSI-03]	> 10 µM and 12.1 µM	9.38	17.1	> 20
COc1ccc(Cl)cc1N1C(=O)C(Cl)=C(Nc2ccccc2O)C1=O [TSI-04]	> 10 µM and 16.3 µM	7.79	> 20	> 20
COc1ccc(N2C(=O)C(Cl)=C(Oc3ccccc3OC)C2=O)cc1 [TSI-05]	> 20 µM	> 20	7.58	> 20
CC(C)OC(=O)c1ccc(N2C(=O)C(Cl)=C(N3CCOCC3)C2=O)cc1 [TSI-06]	> 20 µM	> 20	> 20	> 20
COC(=O)c1ccc(N2C(=O)C(Cl)=C(Nc3ccc(S(N)(=O)=O)cc3)C2=O)cc1 [TSI-08]	> 20 µM	> 20	> 20	> 20
COC(=O)c1ccc(N2C(=O)C(Cl)=C(Cl)C2=O)cc1 [TSI-09]	3.5 µM	10.1	11.6	> 20
